This note sets out measurements from patent US10246456B2, “IRAK4 inhibiting agents” (BIOGEN MA INC., priority 2014, dated 2019).

Sequence of IRAK4 (Q9NWZ3 whole entry, species assumed): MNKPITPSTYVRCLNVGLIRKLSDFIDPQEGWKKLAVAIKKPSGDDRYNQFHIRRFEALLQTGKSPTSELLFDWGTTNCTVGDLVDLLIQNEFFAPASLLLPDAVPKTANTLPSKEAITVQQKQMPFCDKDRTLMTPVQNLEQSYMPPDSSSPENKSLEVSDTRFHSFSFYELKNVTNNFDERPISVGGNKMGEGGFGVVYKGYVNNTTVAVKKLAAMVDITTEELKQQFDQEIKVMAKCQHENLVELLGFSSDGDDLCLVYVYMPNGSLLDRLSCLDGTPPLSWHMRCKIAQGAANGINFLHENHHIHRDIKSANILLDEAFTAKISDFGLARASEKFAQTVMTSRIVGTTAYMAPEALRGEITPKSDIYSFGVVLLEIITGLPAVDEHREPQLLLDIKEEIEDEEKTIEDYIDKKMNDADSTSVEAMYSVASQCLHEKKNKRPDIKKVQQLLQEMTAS

The test addresses IRAK4 (Homo sapiens (Human), UniProt Q9NWZ3). In words: IRAK-4 AlphaScreen biochemical kinase assay. The following applies: 1 nM IRAK4, 1 mM ATP, 3.5 h at RT. As to the method:
The biochemical assay is in a AlphaScreen format. The kinase reaction is based on the IRAK-4 phosphorylation of a biotin labeled peptide. The phosphopeptide is incubated with anti-phosphothreonine antibody as well as streptavidin- and protein A-coated beads. Binding of the protein-A coated beads to the antibody and the streptavidin beads to the peptide, leads to an energy transfer from one bead to the other, ultimately producing a luminescent/fluorescent signal.
For orientation: In Alpha technology, singlet oxygen from a donor bead excites a nearby acceptor bead.
Consider “1-(6-methylpyridin-2-yl)-1H-pyrazolo[4,3-c]pyridin-7-amine [Example 200]”, for which the IC50 is under 100 nM.

On to `CC(N)c1cccc(-c2ccc3cnn(-c4cccc(C(F)(F)F)n4)c3c2)n1` (racemic) [Example 209, 1-(6-(1-(6-(trifluoromethyl)pyridin-2-yl)-1H-indazol-6-yl)pyridin-2-yl)ethanamine], for which the IC50 was under 100 nM. In the case of `CNC(C)c1cccc(-c2ccc3cnn(-c4cccc(C(F)(F)F)n4)c3c2)n1` (single isomer, unassigned) [Example 117, N-methyl-1-(6-(1-(6-(trifluoromethyl)pyridin-2-yl)-1H-indazol-6-yl)pyridin-2-yl)ethanamine] it was under 100 nM. Compound `CCC[C@H](N)c1cccc(-c2ccc3cnn(-c4cccc(C(C)O)n4)c3c2)n1` (single isomer, unassigned) [Example 417] showed an IC50 of under 100 nM.

`CC(N)c1cccc(-c2ccc3cnn(-c4cccc(C(F)(F)F)n4)c3c2)n1` (single isomer, unassigned; isomer a) [Example 83, 1-(6-(1-(6-(trifluoromethyl)pyridin-2-yl)-1H-indazol-6-yl)pyridin-2-yl)ethanamine-isomer A]: the IC50 was under 100 nM. In the case of `CC(N)c1cccc(-c2ccc3cnn(-c4cccc(C(F)(F)F)n4)c3c2)n1` (single isomer, unassigned; isomer b) [Example 84, 1-(6-(1-(6-(trifluoromethyl)pyridin-2-yl)-1H-indazol-6-yl)pyridin-2-yl)ethanamine-isomer B], the IC50 was under 100 nM. In the case of `Cc1cccc(-n2ncc3ccc(-c4cccc(N)n4)cc32)n1` [Example 1, 6-(1-(6-methylpyridin-2-yl)-1H-indazol-6-yl)pyridin-2-amine] it was 100 to 1000 nM; in that of `Cc1cccc(-n2ncc3ccc(-c4nccc(N)n4)cc32)n1` [Example 2, 2-(1-(6-methylpyridin-2-yl)-1H-indazol-6-yl)pyrimidin-4-amine], 1000 to 10000 nM; in that of `Cc1cccc(-n2ncc3ccc(-c4cc(N)ccn4)cc32)n1` [Example 3, 2-(1-(6-methylpyridin-2-yl)-1H-indazol-6-yl)pyridin-4-amine], 1000 to 10000 nM. For the compound `Cc1cccc(-n2ncc3ccc(-c4cccc(CN)n4)cc32)n1` [Example 4, (6-(1-(6-methylpyridin-2-yl)-1H-indazol-6-yl)pyridin-2-yl)methanamine], the IC50 is 100 to 1000 nM. The same measure for `Cc1cccc(-n2ncc3ccc(-c4cc(CN)ccn4)cc32)n1` [Example 5, (2-(1-(6-methylpyridin-2-yl)-1H-indazol-6-yl)pyridin-4-yl)methanamine]: 1000 to 10000 nM; for `Cc1cccc(-n2ncc3ccc(-c4ccnc(N)c4)cc32)n1` [Example 6, 4-(1-(6-methylpyridin-2-yl)-1H-indazol-6-yl)pyridin-2-amine]: 100 to 1000 nM. In the case of `Cc1cccc(-n2ncc3ccc(-c4cccc(N)c4)cc32)n1` [Example 8, 3-(1-(6-methylpyridin-2-yl)-1H-indazol-6-yl)aniline] it was 100 to 1000 nM. The same measure for `Cc1cccc(-n2ncc3ccc(-c4nccc(CN)n4)cc32)n1` [Example 9, (2-(1-(6-methylpyridin-2-yl)-1H-indazol-6-yl)pyrimidin-4-yl)methanamine]: 100 to 1000 nM; for `Cc1cccc(-n2ncc3ccc(-c4cncc(N)c4C)cc32)n1` [Example 10, 4-methyl-5-(1-(6-methylpyridin-2-yl)-1H-indazol-6-yl)pyridin-3-amine]: 1000 to 10000 nM; for `Cc1cccc(-n2ncc3ccc(-c4cc(N)cnc4O)cc32)n1` [Example 11, 5-amino-3-(1-(6-methylpyridin-2-yl)-1H-indazol-6-yl)pyridin-2-ol]: 1000 to 10000 nM.

`Cc1cccc(-n2ncc3ccc(-c4cncc(N)c4O)cc32)n1` [Example 12, 3-amino-5-(1-(6-methylpyridin-2-yl)-1H-indazol-6-yl)pyridin-4-ol] registered an IC50 of 1000 to 10000 nM.

A word on the IC50: it is the concentration at which inhibition is half-maximal. Low values mean greater potency, high ones weaker potency.
